Experimental data: patent US20080318938A1, “METHODS FOR TREATING ABERRANT CELL PROLIFERATION DISORDERS” (priority 2007, published 2008)

Experiments:
[1] = TA4-1A in plasma, brain and tumor of HCT116 tumor-bearing mice; type: in vivo; settings: for Share of the therapeutic agent in brain / Share of the therapeutic agent in plasma / Share of the therapeutic agent in tumor: mice, 12.5 mg/kg IV daily 14 days, wash-out, last dose day 19
From the text: In vivo experiment protocols were approved by the Animal Use and Care Committee. Female NCr nu/nu mice were purchased from Taconic Farms and group housed in a ventilated rack system on a 12/12 light cycle. All housing materials and water were autoclaved prior to use. The mice were fed ad libitum with gamma-irradiated laboratory chow and acidified water. Animals were handled under laminar-flow hoods. Animals were inoculated subcutaneously in the right flank with 5×10̂6 HCT116 cells. Tumors were monitored twice weekly and then daily as they approached the appropriate size for study. On Day 1 of the study, the animals were randomized into n=3 treatment groups with group average tumor sizes of 109 mm^3.
(§1) where w=width and 1=length in mm of the tumor. Tumor weight was estimated with the assumption that 1 mg is equivalent to 1 mm^3 of tumor volume. Mice were daily dosed with compound TA4-1A at 12.5 mg/kg (IV) during 14 days. A wash-out period ensued for four days with no dosing, and the last dose was administered after the wash-out period (day 19) at 12.5 mg/kg. At one, two and twenty-four hour time points plasma, brain and tumor samples were collected from terminal mice and frozen. It was determined that the tumor contained 35%, plasma contained 64% and brain contained 1% of the therapeutic agent after the one hour time point, and the tumor contained 74%, plasma contained 24% and brain contained 2% of the therapeutic agent after the two hour time point. At the 24 hour time point, tumor contained 17%, plasma contained 49% and brain contained 34% of the therapeutic agent. After an eight hour exposure to the agent in female and male rats, approximately 3-4% of the agent was available in the brain as compared to the amount in plasma. […] Examples of cell lines and particular brain cancers are described herein.

[2] = TA4-1A in brain compared to plasma in rats; type: in vivo; settings: both sexes, rat, female and male rats, eight hour exposure, read-out: Agent available in the brain as compared to the amount in plasma
Experimental: as §1

- Share of the therapeutic agent in brain ([1]; 24 hour): 34%
- Share of the therapeutic agent in plasma ([1]; 24 hour): 49%
- Share of the therapeutic agent in tumor ([1]; 24 hour): 17%
- Share of the therapeutic agent in brain ([1]; one hour): 1%
- Share of the therapeutic agent in plasma ([1]; one hour): 64%
- Share of the therapeutic agent in tumor ([1]; one hour): 35%
- Share of the therapeutic agent in brain ([1]; two hour): 2%
- Share of the therapeutic agent in plasma ([1]; two hour): 24%
- Share of the therapeutic agent in tumor ([1]; two hour): 74%
- Kp at 8 h [2]: 0.03 to 0.04
Compound: CC(=O)N1CCN(c2nc3c(cc2F)c(=O)c(C(=O)NCCN2CCCC2)c2n(C)c4ccccc4n32)CC1 [TA4-1A]
- Blood-brain barrier permeation ([1]; mice and rats, conclusion from brain levels): can permeate the blood-brain barrier to some extent
